Experiments:
Format in all cases: biochemical
human Yes1 enzyme = target: T1, human Yes1 enzyme (Homo sapiens, UniProt P07947); experiment: Yes1 enzyme inhibitory activity (time-resolved fluorometry, biotinylated peptide phosphorylation); details: read-out: YES_IC50
T1 construct: made in house
In short: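 Inhibition was expressed against a compound-free control to give IC50, using TR-FRET read-out (Eu-cryptate anti-pTyr antibody, streptavidin-XL665).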

human Src enzyme = target: T2, human Src enzyme (Homo sapiens, UniProt P12931); experiment: Src enzyme inhibitory activity (time-resolved fluorometry, biotinylated peptide phosphorylation); details: read-out: SRC_IC50
T2 construct: purchased Carna Biosciences, Inc. 08-173
T2 sequence (P12931 whole entry): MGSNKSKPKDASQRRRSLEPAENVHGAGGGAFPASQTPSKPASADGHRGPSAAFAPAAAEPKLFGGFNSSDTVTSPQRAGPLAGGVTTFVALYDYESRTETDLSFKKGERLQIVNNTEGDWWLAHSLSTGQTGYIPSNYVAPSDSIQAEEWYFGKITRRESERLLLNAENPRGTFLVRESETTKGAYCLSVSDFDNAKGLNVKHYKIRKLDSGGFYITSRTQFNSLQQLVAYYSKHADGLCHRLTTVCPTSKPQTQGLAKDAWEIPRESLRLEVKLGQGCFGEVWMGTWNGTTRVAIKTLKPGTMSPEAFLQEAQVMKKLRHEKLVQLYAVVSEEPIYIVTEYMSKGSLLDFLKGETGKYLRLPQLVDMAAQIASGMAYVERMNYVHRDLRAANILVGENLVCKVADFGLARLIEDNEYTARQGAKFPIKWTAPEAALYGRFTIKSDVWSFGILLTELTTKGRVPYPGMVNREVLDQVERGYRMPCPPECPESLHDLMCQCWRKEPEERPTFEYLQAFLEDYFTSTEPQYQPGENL
In short: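 Compounds were tested for blocking tyrosine phosphorylation of a biotinylated peptide substrate by recombinant human Src. Phosphorylated product was quantified by time-resolved fluorometry using europium cryptate and XL665 conjugates, and IC50 was calculated against the compound-free control.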

human Lck enzyme = target: T3, human Lck enzyme (Homo sapiens, UniProt P06239); experiment: Lck enzyme inhibitory activity (time-resolved fluorometry, biotinylated peptide phosphorylation); details: read-out: LCK_IC50
T3 construct: purchased Carna Biosciences, Inc. 08-170
T3 sequence (P06239 whole entry): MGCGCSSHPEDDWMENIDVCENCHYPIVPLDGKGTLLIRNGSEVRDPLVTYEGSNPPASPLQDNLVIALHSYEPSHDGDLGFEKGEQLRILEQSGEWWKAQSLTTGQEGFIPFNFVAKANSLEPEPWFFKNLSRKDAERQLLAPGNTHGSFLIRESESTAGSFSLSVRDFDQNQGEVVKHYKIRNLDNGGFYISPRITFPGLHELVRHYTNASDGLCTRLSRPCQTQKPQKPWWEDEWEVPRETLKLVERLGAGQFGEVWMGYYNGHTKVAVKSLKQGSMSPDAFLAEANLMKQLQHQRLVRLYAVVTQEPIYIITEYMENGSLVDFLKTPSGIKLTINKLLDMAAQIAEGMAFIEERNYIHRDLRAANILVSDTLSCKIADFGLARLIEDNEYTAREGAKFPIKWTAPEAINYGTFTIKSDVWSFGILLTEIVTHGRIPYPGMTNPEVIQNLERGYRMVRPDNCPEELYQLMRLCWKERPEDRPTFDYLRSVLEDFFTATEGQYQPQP
In short: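 Readout pairs a europium cryptate-labelled anti-phosphotyrosine antibody with XL665-streptavidin, measured by time-resolved fluorescence. IC50 derived from percent inhibition against untreated controls.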

T1 sequence (P07947 whole entry): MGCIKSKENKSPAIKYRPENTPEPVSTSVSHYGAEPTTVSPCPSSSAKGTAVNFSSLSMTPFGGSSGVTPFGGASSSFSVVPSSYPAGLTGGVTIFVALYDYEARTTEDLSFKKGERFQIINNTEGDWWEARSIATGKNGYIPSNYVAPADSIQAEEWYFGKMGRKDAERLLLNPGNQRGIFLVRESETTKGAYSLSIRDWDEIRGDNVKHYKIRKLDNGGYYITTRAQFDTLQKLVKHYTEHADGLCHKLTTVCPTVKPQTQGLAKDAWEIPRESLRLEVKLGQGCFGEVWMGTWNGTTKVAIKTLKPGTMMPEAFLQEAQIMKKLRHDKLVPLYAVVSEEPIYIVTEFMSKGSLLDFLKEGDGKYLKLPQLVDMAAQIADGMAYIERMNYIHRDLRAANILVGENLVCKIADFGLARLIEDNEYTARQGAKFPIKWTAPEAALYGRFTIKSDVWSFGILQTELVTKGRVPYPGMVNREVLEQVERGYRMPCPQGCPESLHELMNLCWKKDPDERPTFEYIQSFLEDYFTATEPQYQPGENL

| IC50 (human Yes1 enzyme) [nM] | IC50 (human Src enzyme) [nM] | IC50 (human Lck enzyme) [nM] | SMILES |
| --- | --- | --- | --- |
| 1 | 42 | 7.1 | Cc1cc2cc(C(=O)c3cnn(-c4ccc(Oc5ccccc5F)cc4C)c3N)[nH]c2cc1N1CCC(N2CCOCC2)CC1 [Example 5-1-077, [5-amino-1-[4-(2-fluorophenoxy)-2-methylphenyl]pyrazol-4-yl]-[5-methyl-6-(4-morpholin-4-ylpiperidin-1-yl)-1H-indol-2-yl] methanone] |
| 0.28 | 10 | 2.4 | Cc1cc2cc(C(=O)c3cnn(-c4cnc(Oc5ccccc5F)cc4C)c3N)[nH]c2cc1N1CCC(N2CCOCC2)CC1 [Example 5-1-078, [5-amino-1-[6-(2-fluorophenoxy)-4-methylpyridin-3-yl]pyrazol-4-yl]-[5-methyl-6-(4-morpholin-4-ylpiperidin-1-yl)-1H-indol-2-yl]methanone] |
| 1 | 20 | 3.8 | Cc1cc(Oc2c(F)cccc2F)ncc1-n1ncc(C(=O)c2cc3cc(OC(F)F)c(NC4CN(S(C)(=O)=O)C4)cc3[nH]2)c1N [Example 5-1-079, [5-amino-1-[6-(2,6-difluorophenoxy)-4-methylpyridin-3-yl]pyrazol-4-yl]-[5-(difluoromethoxy)-6-[(1-methylsulfonylazetidin-3-yl)amino]-1H-indol-2-yl]methanone] |
| 3.3 | 37 | 14 | Cc1cc(Oc2c(F)cccc2F)ncc1-n1ncc(C(=O)c2cc3cc(OCC(F)F)c(Br)cc3[nH]2)c1N [Example 5-1-080, [5-amino-1-[6-(2,6-difluorophenoxy)-4-methylpyridin-3-yl]pyrazol-4-yl]-[6-bromo-5-(2,2-difluoroethoxy)-1H-indol-2-yl]methanone] |
| 2.4 | 110 | 6.4 | Cc1cc2cc(C(=O)c3cnn(-c4cnc(Oc5cc(F)ccc5F)cc4C)c3N)[nH]c2cc1NS(C)(=O)=O [Example 5-1-081, N-[2-[5-amino-1-[6-(2,5-difluorophenoxy)-4-methylpyridin-3-yl]pyrazole-4-carbonyl]-5-methyl-1H-indol-6-yl]methanesulfonamide] |
| 1.9 | 26 | 11 | Cc1cc(Oc2ccccc2F)ccc1-n1ncc(C(=O)c2cc3cc(OC(F)F)c(Br)cc3[nH]2)c1N [Example 5-1-082, [5-amino-1-[4-(2-fluorophenoxy)-2-methylphenyl]pyrazol-4-yl]-[6-bromo-5-(difluoromethoxy)-1H-indol-2-yl]methanone] |
| 0.72 | 7.2 | 7 | Cc1cc(Oc2ccccc2F)ccc1-n1ncc(C(=O)c2cc3cc(OC(F)F)c(N)cc3[nH]2)c1N [Example 5-1-083, [6-amino-5-(difluoromethoxy)-1H-indol-2-yl]-[5-amino-1-[4-(2-fluorophenoxy)-2-methylphenyl]pyrazol-4-yl]methanone] |
| 4.1 | 34 | 4.5 | Cc1cc2cc(C(=O)c3cnn(-c4c(C)cc(Oc5ccccc5F)cc4F)c3N)[nH]c2cc1N1CCOCC1 [Example 5-1-084, [5-amino-1-[2-fluoro-4-(2-fluorophenoxy)-6-methylphenyl]pyrazol-4-yl]-(5-methyl-6-morpholin-4-yl-1H-indol-2-yl)methanone] |
| 2.3 | 21 | 2 | Cc1cc2cc(C(=O)c3cnn(-c4c(C)cc(Oc5ccccc5F)cc4F)c3N)[nH]c2cc1N1CCC(N2CCOCC2)CC1 [Example 5-1-085, [5-amino-1-[2-fluoro-4-(2-fluorophenoxy)-6-methylphenyl]pyrazol-4-yl]-[5-methyl-6-(4-morpholin-4-ylpiperidin-1-yl)-1H-indol-2-yl] methanone] |
| 1.4 | 8.5 | 2.8 | Cc1cc2cc(C(=O)c3cnn(-c4ccc(Oc5ccccc5F)cc4C)c3N)[nH]c2cc1C1CCN(S(C)(=O)=O)CC1 [Example 5-1-086, [5-amino-1-[4-(2-fluorophenoxy)-2-methylphenyl]pyrazol-4-yl]-[5-methyl-6-(1-methylsulfonylpiperidin-4-yl)-1H-indol-2-yl] methanone] |
| 0.77 | 13 | 3.9 | Cc1cc(Oc2ccccc2F)ccc1-n1ncc(C(=O)c2cc3cc(OCC(F)F)c(N4CCC(O)CC4)cc3[nH]2)c1N [Example 5-1-087, [5-amino-1-[4-(2-fluorophenoxy)-2-methylphenyl]pyrazol-4-yl]-[5-(2,2-difluoroethoxy)-6-(4-hydroxypiperidin-1-yl)-1H-indol-2-yl]methanone] |
| 2.2 | 27 | 2.8 | Cc1cc2cc(C(=O)c3cnn(-c4cnc(Oc5c(F)cccc5F)cc4C)c3N)[nH]c2cc1NS(=O)(=O)CC(=O)N1CCCC1 [Example 5-1-088, N-[2-[5-amino-1-[6-(2,6-difluorophenoxy)-4-methylpyridin-3-yl]pyrazole-4-carbonyl]-5-methyl-1H-indol-6-yl]-2-oxo-2-pyrrolidin-1-ylethanesulfonamide] |
| 6.2 | 77 | 8.9 | Cc1cc2cc(C(=O)c3cnn(-c4c(C)cc(Oc5ccccc5F)cc4F)c3N)[nH]c2cc1NS(=O)(=O)CC(=O)NC(C)C [Example 5-1-089, 2-[[2-[5-amino-1-[2-fluoro-4-(2-fluorophenoxy)-6-methylphenyl]pyrazole-4-carbonyl]-5-methyl-1H-indol-6-yl]sulfamoyl]-N-propan-2-ylacetamide] |
| 2.6 | 25 | 3.8 | Cc1cc2cc(C(=O)c3cnn(-c4cnc(Oc5ccccc5F)cc4C)c3N)[nH]c2cc1C1CCN(S(C)(=O)=O)CC1 [Example 5-1-090, [5-amino-1-[6-(2-fluorophenoxy)-4-methylpyridin-3-yl]pyrazol-4-yl]-[5-methyl-6-(1-methylsulfonylpiperidin-4-yl)-1H-indol-2-yl] methanone] |
| 3.2 | 24 | 3.7 | Cc1cc2cc(C(=O)c3cnn(-c4cnc(Oc5c(F)cccc5F)cc4C)c3N)[nH]c2cc1C1CCN(S(C)(=O)=O)CC1 [Example 5-1-091, [5-amino-1-[6-(2,6-difluorophenoxy)-4-methylpyridin-3-yl]pyrazol-4-yl]-[5-methyl-6-(1-methylsulfonylpiperidin-4-yl)-1H-indol-2-yl] methanone] |
| 0.91 | 16 | 2.8 | Cc1cc2cc(C(=O)c3cnn(-c4ccc(Oc5c(F)cccc5F)cc4C)c3N)[nH]c2cc1NS(C)(=O)=O [Example 5-1-092, N-[2-[5-amino-1-[4-(2,6-difluorophenoxy)-2-methylphenyl]pyrazole-4-carbonyl]-5-methyl-1H-indol-6-yl]methanesulfonamide] |
| 1.8 | 11 | 3.7 | Cc1cc(Oc2ccccc2F)ccc1-n1ncc(C(=O)c2cc3cc(N4CCOCC4)c(N4CCN(S(C)(=O)=O)CC4)cc3[nH]2)c1N [Example 5-1-093, [5-amino-1-[4-(2-fluorophenoxy)-2-methylphenyl]pyrazol-4-yl]-[6-(4-methylsulfonylpiperazin-1-yl)-5-morpholin-4-yl-1H-indol-2-yl]methanone] |
| 2.9 | 19 | 4.1 | Cc1cc(Oc2ccccc2F)ccc1-n1ncc(C(=O)c2cc3cc(N4CCOCC4)c(N4CCOCC4)cc3[nH]2)c1N [Example 5-1-094, [5-amino-1-[4-(2-fluorophenoxy)-2-methylphenyl]pyrazol-4-yl]-(5,6-dimorpholin-4-yl-1H-indol-2-yl)methanone] |
| 0.87 | 4.5 | 1.5 | Cc1cc(Oc2ccccc2F)ccc1-n1ncc(C(=O)c2cc3cc(F)c(N4CCOC4=O)cc3[nH]2)c1N [Example 5-1-095, 3-[2-[5-amino-1-[4-(2-fluorophenoxy)-2-methylphenyl]pyrazole-4-carbonyl]-5-fluoro-1H-indol-6-yl]-1,3-oxazolidin-2-one] |
| 1.7 | 33 | 2.7 | Cc1cc2cc(C(=O)c3cnn(-c4ccc(Oc5c(F)cccc5Cl)cc4C)c3N)[nH]c2cc1NS(C)(=O)=O [Example 5-1-096, N-[2-[5-amino-1-[4-(2-chloro-6-fluorophenoxy)-2-methylphenyl]pyrazole-4-carbonyl]-5-methyl-1H-indol-6-yl] methanesulfonamide] |
| 1.1 | 8.7 | 1.3 | Cc1cc(Oc2c(F)cccc2F)ncc1-n1ncc(C(=O)c2cc3cc(F)c(N4CCOC4=O)cc3[nH]2)c1N [Example 5-1-097, 3-[2-[5-amino-1-[6-(2,6-difluorophenoxy)-4-methylpyridin-3-yl]pyrazole-4-carbonyl]-5-fluoro-1H-indol-6-yl]-1,3-oxazolidin-2-one] |
| 1.9 | 15 | 1.4 | Cc1cc(Oc2c(F)cccc2F)ncc1-n1ncc(C(=O)c2cc3cc(F)c(N4CCCC4=O)cc3[nH]2)c1N [Example 5-1-098, 1-[2-[5-amino-1-[6-(2,6-difluorophenoxy)-4-methylpyridin-3-yl]pyrazole-4-carbonyl]-5-fluoro-1H-indol-6-yl]pyrrolidin-2-one] |
| 2.1 | 11 | 2.2 | Cc1cc(Oc2c(F)cccc2F)ncc1-n1ncc(C(=O)c2cc3cc(F)c(N4CCN(S(C)(=O)=O)CC4)cc3[nH]2)c1N [Example 5-1-099] |
| 1.6 | 8.7 | 1.3 | Cc1cc(Oc2c(F)cccc2F)ncc1-n1ncc(C(=O)c2cc3cc(F)c(N4CCOCC4)cc3[nH]2)c1N [Example 5-1-100, [5-amino-1-[6-(2,6-difluorophenoxy)-4-methylpyridin-3-yl]pyrazol-4-yl]-(5-fluoro-6-morpholin-4-yl-1H-indol-2-yl)methanone] |
